Measured values as given in PubChem BioAssay (NCI).
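GI50 is the concentration that inhibits growth by half. TGI marks complete inhibition of growth.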

Experiments:
Assay in all cases: NCI-60 cell line screen, 384-well format
UACC-257 melanoma = test system: UACC-257 melanoma
SK-MEL-28 melanoma = test system: SK-MEL-28 melanoma
SF-268 CNS = test system: SF-268 CNS
A549 NSCLC = test system: A549 NSCLC
786-0 renal = test system: 786-0 renal
HOP-62 NSCLC = test system: HOP-62 NSCLC
MOLT-4 leukemia = test system: MOLT-4 leukemia
MDA-MB-231 breast = test system: MDA-MB-231 breast
PC-3 prostate = test system: PC-3 prostate
NCI-H322M lung = test system: NCI-H322M lung
BT-549 breast = test system: BT-549 breast
SNB-19 CNS = test system: SNB-19 CNS
HCT-116 colon = test system: HCT-116 colon
OVCAR-8 ovarian = test system: OVCAR-8 ovarian
T-47D breast = test system: T-47D breast
DU-145 prostate = test system: DU-145 prostate
HCT-15 colon = test system: HCT-15 colon
OVCAR-4 ovarian = test system: OVCAR-4 ovarian
COLO 205 colon = test system: COLO 205 colon
K-562 leukemia = test system: K-562 leukemia
NCI-H226 lung = test system: NCI-H226 lung
MDA-MB-435 melanoma = test system: MDA-MB-435 melanoma
SNB-75 CNS = test system: SNB-75 CNS
SF-295 CNS = test system: SF-295 CNS
CCRF-CEM leukemia = test system: CCRF-CEM leukemia
SN12C renal = test system: SN12C renal
SK-MEL-5 melanoma = test system: SK-MEL-5 melanoma
RXF 393 renal = test system: RXF 393 renal
HS 578T breast = test system: HS 578T breast
SK-OV-3 ovarian = test system: SK-OV-3 ovarian
UACC-62 melanoma = test system: UACC-62 melanoma
NCI/ADR-RES ovarian = test system: NCI/ADR-RES ovarian
SW-620 colon = test system: SW-620 colon
ACHN renal = test system: ACHN renal
TK-10 renal = test system: TK-10 renal
NCI-H460 NSCLC = test system: NCI-H460 NSCLC
IGROV1 ovarian = test system: IGROV1 ovarian
HT29 colon = test system: HT29 colon
OVCAR-3 ovarian = test system: OVCAR-3 ovarian
HCC-2998 colon = test system: HCC-2998 colon
SF-539 CNS = test system: SF-539 CNS
EKVX NSCLC = test system: EKVX NSCLC
RPMI-8226 leukemia = test system: RPMI-8226 leukemia
U251 glioblastoma = test system: U251 glioblastoma
NCI-H522 lung = test system: NCI-H522 lung
SK-MEL-2 melanoma = test system: SK-MEL-2 melanoma
HL-60(TB) leukemia = test system: HL-60(TB) leukemia
HOP-92 NSCLC = test system: HOP-92 NSCLC
A498 renal = test system: A498 renal
SR leukemia = test system: SR leukemia
MDA-MB-468 breast = test system: MDA-MB-468 breast
CAKI-1 renal = test system: CAKI-1 renal
M14 melanoma = test system: M14 melanoma
NCI-H23 lung = test system: NCI-H23 lung
MCF7 breast = test system: MCF7 breast
KM12 colon = test system: KM12 colon
MALME-3M melanoma = test system: MALME-3M melanoma
OVCAR-5 ovarian = test system: OVCAR-5 ovarian

O=C1CC(c2c[nH]c3ccc(F)cc23)C(=O)N1 (stereo unspecified)
GI50 (UACC-257 melanoma): > 100 µM | TGI (UACC-257 melanoma): > 100 µM | GI50 (SK-MEL-28 melanoma): > 100 µM | TGI (SK-MEL-28 melanoma): > 100 µM | GI50 (SF-268 CNS): > 100 µM | TGI (SF-268 CNS): > 100 µM | GI50 (A549 NSCLC): > 100 µM | TGI (A549 NSCLC): > 100 µM | GI50 ([…]-0 renal): > 100 µM | TGI (786-0 renal): > 100 µM | GI50 (HOP-62 NSCLC): > 100 µM | TGI (HOP-62 NSCLC): > 100 µM | GI50 (MOLT-4 leukemia): > 100 µM | TGI (MOLT-4 leukemia): > 100 µM | GI50 (MDA-MB-231 breast): > 100 µM | TGI (MDA-MB-231 breast): > 100 µM | GI50 (PC-3 prostate): > 100 µM | TGI (PC-3 prostate): > 100 µM | GI50 (NCI-H322M lung): > 100 µM | TGI (NCI-H322M lung): > 100 µM | GI50 (BT-549 breast): > 100 µM | TGI (BT-549 breast): > 100 µM | GI50 (SNB-19 CNS): > 100 µM | TGI (SNB-19 CNS): > 100 µM | GI50 (HCT-116 colon): > 100 µM | TGI (HCT-116 colon): > 100 µM | GI50 (OVCAR-8 ovarian): > 100 µM | TGI (OVCAR-8 ovarian): > 100 µM | GI50 (T-47D breast): > 100 µM | TGI (T-47D breast): > 100 µM | GI50 (DU-145 prostate): > 100 µM | TGI (DU-145 prostate): > 100 µM | GI50 (HCT-15 colon): > 100 µM | TGI (HCT-15 colon): > 100 µM | GI50 (OVCAR-4 ovarian): > 100 µM | TGI (OVCAR-4 ovarian): > 100 µM | GI50 (COLO 205 colon): > 100 µM | TGI (COLO 205 colon): > 100 µM | GI50 (K-562 leukemia): > 100 µM | TGI (K-562 leukemia): > 100 µM | GI50 (NCI-H226 lung): > 100 µM | TGI (NCI-H226 lung): > 100 µM | GI50 (MDA-MB-435 melanoma): > 100 µM | TGI (MDA-MB-435 melanoma): > 100 µM | GI50 (SNB-75 CNS): > 100 µM | TGI (SNB-75 CNS): > 100 µM | GI50 (SF-295 CNS): > 100 µM | TGI (SF-295 CNS): > 100 µM | GI50 (CCRF-CEM leukemia): > 100 µM | TGI (CCRF-CEM leukemia): > 100 µM | GI50 (SN12C renal): > 100 µM | TGI (SN12C renal): > 100 µM | GI50 (SK-MEL-5 melanoma): > 100 µM | TGI (SK-MEL-5 melanoma): > 100 µM | GI50 (RXF 393 renal): > 100 µM | TGI (RXF 393 renal): > 100 µM | GI50 (HS 578T breast): > 100 µM | TGI (HS 578T breast): > 100 µM | GI50 (SK-OV-3 ovarian): > 100 µM | TGI (SK-OV-3 ovarian): > 100 µM | GI50 (UACC-62 melanoma): > 100 µM | TGI (UACC-62 melanoma): > 100 µM | GI50 (NCI/ADR-RES ovarian): > 100 µM | TGI (NCI/ADR-RES ovarian): > 100 µM | GI50 (SW-620 colon): > 100 µM | TGI (SW-620 colon): > 100 µM | GI50 (ACHN renal): > 100 µM | TGI (ACHN renal): > 100 µM | GI50 (TK-10 renal): > 100 µM | TGI (TK-10 renal): > 100 µM | GI50 (NCI-H460 NSCLC): > 100 µM | TGI (NCI-H460 NSCLC): > 100 µM | GI50 (IGROV1 ovarian): > 100 µM | TGI (IGROV1 ovarian): > 100 µM | GI50 (HT29 colon): > 100 µM | TGI (HT29 colon): > 100 µM | GI50 (OVCAR-3 ovarian): > 100 µM | TGI (OVCAR-3 ovarian): > 100 µM | GI50 (HCC-2998 colon): > 100 µM | TGI (HCC-2998 colon): > 100 µM | GI50 (SF-539 CNS): > 100 µM | TGI (SF-539 CNS): > 100 µM | GI50 (EKVX NSCLC): > 100 µM | TGI (EKVX NSCLC): > 100 µM | GI50 (RPMI-8226 leukemia): > 100 µM | TGI (RPMI-8226 leukemia): > 100 µM | GI50 (U251 glioblastoma): > 100 µM | TGI (U251 glioblastoma): > 100 µM | GI50 (NCI-H522 lung): > 100 µM | TGI (NCI-H522 lung): > 100 µM | GI50 (SK-MEL-2 melanoma): > 100 µM | TGI (SK-MEL-2 melanoma): > 100 µM | GI50 (HL-60(TB) leukemia): > 100 µM | TGI (HL-60(TB) leukemia): > 100 µM | GI50 (HOP-92 NSCLC): > 100 µM | TGI (HOP-92 NSCLC): > 100 µM | GI50 (A498 renal): > 100 µM | TGI (A498 renal): > 100 µM | GI50 (SR leukemia): > 100 µM | TGI (SR leukemia): > 100 µM | GI50 (MDA-MB-468 breast): > 100 µM | TGI (MDA-MB-468 breast): > 100 µM | GI50 (CAKI-1 renal): > 100 µM | TGI (CAKI-1 renal): > 100 µM | GI50 (M14 melanoma): > 100 µM | TGI (M14 melanoma): > 100 µM | GI50 (NCI-H23 lung): > 100 µM | TGI (NCI-H23 lung): > 100 µM | GI50 (MCF7 breast): > 100 µM | TGI (MCF7 breast): > 100 µM | GI50 (KM12 colon): > 100 µM | TGI (KM12 colon): > 100 µM | GI50 (MALME-3M melanoma): > 100 µM | TGI (MALME-3M melanoma): > 100 µM | GI50 (OVCAR-5 ovarian): > 100 µM | TGI (OVCAR-5 ovarian): > 100 µM
